US8633314B2, “Forms of a multicyclic compound” (Cephalon, Inc., priority 2009, dated 2014)

Experiments:
Format in all cases: physicochemical
[1] = Solid state stress stability (storage; XRPD and stability-indicating HPLC)
Method: Typically 10 μL aliquots of the sample solutions were diluted to 1 mL with acetonitrile and the assay concentrations were determined from an average of duplicate injections using the following HPLC method. The purity and impurity analyses are done using conventional HPLC.
Crystallization studies were performed to investigate polymorphism in 48 different solvents. Solvents were selected on the basis of acceptability (ICH Class 3 and 2) and to give a range of dielectric constants, dipole moments and functional groups. Two starting materials were selected: Form A0 and Lot 7 (a mixture of Form A0, Form HC0 and Form HD0). When possible, full characterization was performed on the new forms that were generated during the polymorphism screening of Compound I. This characterization consisted of: XRPD, thermal analysis, DVS, storage at 40° C./75% RH and purity.
Stress stability studies were performed to get a timely impression of the influence of temperature and humidity on form stability. A stability-indicating HPLC assay method was developed for quantitation of Compound I and its major degradation product, 7-methoxy-1,2,3,11-tetrahydro-5,11-diaza-benzo[a]trindene-4,6-dione, previously referred to as “Compound E”.

[2] = Relative stability of slurries in water (XRPD of residual solid); conditions: for Forms Found (XRPD of residual solid): water
Method: Two ml of water was added to a few milligrams of Compound I forms. The samples were slurried overnight. A small sample of solid was removed and analyzed by XRPD. […] The hydrate form appears to be more thermodynamically stable than Form A0 between 5 and 45° C.

[3] = Dynamic vapor sorption (DVS)
Method: Gravimetric vapor sorption experiments were carried out using the DVS-HT instrument (Surface Measurement Systems, London, UK). This instrument measures the uptake and loss of vapor gravimetrically using a recording ultra-microbalance with a mass resolution of ±0.1 μg. The vapor partial pressure (±1.0%) around the sample was controlled by mixing saturated and dry carrier gas streams using electronic mass flow controllers. The desired temperature was maintained at ±0.1° C.
The samples (10-25 mg) were placed into the DVS-HT instrument at the desired temperature. Two types of dynamic vapor sorption experiments were performed: • 1. The sample was initially dried in stream of dry air (<0.1% relative humidity (RH)) for 20 hours to establish a dry mass and exposed to two 0-90% RH cycles (in 10% RH increments). • 2. The sample was exposed at 90% RH for 20 hours and exposed to two 90-0% RH cycles (in 10% RH increments). Infrared Spectrometry (FTIR)

[4] = Variable temperature X-ray powder diffraction (VT-XRPD)
Method: Variable temperature studies were performed under a nitrogen atmosphere with an Anton Paar TTK450 temperature chamber under computer control through an Anton Paar TCU100 temperature control unit. Two measurement schemes were used, restricted and continuous. In the restricted mode, measurements were made, only after the TK450 chamber reached the requested temperature. In the continuous mode, the sample was heated at 10° C./minute and fast scans were measured as the temperature changed. After the requested temperature was reached, the sample was cooled at 30 or 35° C./minute and a slower scan measured 25° C.

[5] = Well plate crystallization with added water (forms found); conditions: for Forms Found: methyl acetate
Method: B. Plates containing 10 volumes of Compound I (40 mg of Lot 7 in 400 μL) were heated from 20° C. to an initial temperature of 80° C. at a rate of 4.8° C./min and after 30 minutes, cooled at a slow (0.28° C./min), or fast (10° C./min) rate to a final temperature of 5° C. and kept at that temperature for 18 hours. The crystallization experiments were carried out in glass vial (4 mL) well plates, and solid material was isolated by filtration. The solid was dried at 57° C. for 10 hours.

[6] = Mechanical stress: grinding by mortar and pestle, milling by Wig-L-Bug
Method: Approximately 100 mg of Compound I was ground at different times ranging from 5 to 27 min in an agate mortar. Samples were removed for XRPD and thermal analysis. The grinding process was stopped every 5 minutes to scrape and remix powder cakes at the curvature end of the jars to ensure homogenous grinding.
A Wig-l-Bug® (Piketech, USA) was used to grind Compound I Form A0, HA0 and HB0 (mixture of Forms HC0 and HD0). Each sample (50 mg) was ground for periods of 5 and 10 minutes or until no change was observed. Each milling was carried out in a 2.82 cm^3 container using 0.9 g stainless steel ball ([…]). The vial is swung through a 6.5° arc at 3200 rpm, causing the ball to strike the end of the vial at over 100 Hz.

[7] = Thermodynamic solubility of monohydrate forms in organic solvents
Method: Experiments were set up to measure the thermodynamic solubility of these monohydrate forms at room temperature and 55° C. in ethyl acetate, MTBE and 1-pentanol.

[8] = Irregular DVS (90 to 0% RH), listed as A0
[9] = Regular DVS (0 to 90% RH), listed as A0
[10] = Irregular DVS (90 to 0% RH), listed as HD0
[11] = Regular DVS (0 to 90% RH), listed as HD0

COc1cccc2[nH]c3c4c(c5c(c3c12)C(=O)N(CN1CCN(C)CC1)C5=O)CCC4 [Form A0, 4,5,6,7-tetrahydro-11-methoxy-2-[(4-methyl-1-piperazinyl)methyl]-1H-cyclopenta[a]pyrrolo[3,4-c]carbazole-1,3(2H)-dione]
Chemical Stability (HPLC (post 4 weeks at 40° C./75% RH (Area %))) ([1]; 40° C./75% RH): 99.0 Area % | forms arising on storage (water uptake) ([1]; 40° C. and 75% RH, after 3 months): hydrate Forms HC0 and HD0 | HPLC % Compound I ([1]; 40° C./75% RH, 5 days): 99.2% Compound I, | HPLC % Compound I ([1]; 40° C./75% RH, 16 days): 99.2% Compound I, | HPLC % Compound I ([1]; 40° C./75% RH, 29 days): 99.2% Compound I, | HPLC % Compound I ([1]; 40° C./75% RH, 141 days): 99.0% Compound I, | XRPD (form found) ([1]; 40° C./75% RH, 141 days): A0, HC0, HD0 | HPLC % Compound I ([1]; 60° C./0% RH, 7 days): 99.3% Compound I, | HPLC % Compound I ([1]; 60° C./0% RH, 14 days): 99.1% Compound I, | HPLC % Compound I ([1]; 60° C./0% RH, 28 days): 99.1% Compound I, | HPLC % Compound I ([1]; 110° C., 7 days): 98.7% Compound I, | HPLC % Compound I ([1]; 110° C., 14 days): 95.6% Compound I, | HPLC % Compound I ([1]; 110° C., 28 days): 93.4% Compound I, | form after slurrying in water ([2]; slurried overnight in 2 ml water, all conditions investigated): converted to the hydrate forms (mixture of Forms HC0 and HD0) | Forms Found (XRPD of residual solid) ([2]; 5° C., 1 day): HC0, HD0 | Forms Found (XRPD of residual solid) ([2]; 5° C., 4 days): HC0, HD0 | Forms Found (XRPD of residual solid) ([2]; 45° C., 1 day): HA0, HC0 | DVS % increase in mass at 90% RH ([3]; 90% RH): 0.1% | Total uptake at 90% RH ([3]; Irregular DVS (90 to 0% RH)): 0.5% | changes by XRPD re-analysis after DVS ([3]; Irregular DVS (90 to 0% RH)): No significant changes | total increase in mass (reversible isotherm) ([3]; Irregular DVS (90 to 0% RH)): < 0.6% | At 75% RH uptake [3, 8]: 0.15% | Total uptake at 90% RH [3, 8]: 0.5% | At 75% RH uptake ([3]; Regular DVS (0 to 90% RH)): less than 0.08% | Total uptake at 90% RH ([3]; Regular DVS (0 to 90% RH)): approximately 0.1% | changes by XRPD re-analysis after DVS ([3]; Regular DVS (0 to 90% RH)): No significant changes | hygroscopicity ([3]; Regular DVS (0 to 90% RH), adsorption and desorption curves overlap): not hygroscopic | At 75% RH uptake [3, 9]: 0.08% | Total uptake at 90% RH [3, 9]: 0.1% | solid-solid transformation (VT-XRPD) ([4]; 20° C. to 250° C.): No solid-solid transformation takes place | change in XRPD pattern after heating ([4]; heated to 220° C., then exposure to ambient conditions): no significant change | form produced on crystallization from aqueous media ([5]; aqueous media): a mixture of Forms HC0+HD0 is produced | Forms Found ([5]; 0.175 volumes of water): HC0, HD0 | Forms Found ([5]; 0.25 volumes of water): HC0, HD0 | Forms Found ([5]; 1 volume of water): HC0, HD0 | Forms Found ([5]; 1.5 volumes of water): HC0, HD0 | XRPD crystallinity after milling ([6]; five minutes, Wig-l-Bug): crystallinity had been significantly reduced | XRPD crystallinity after grinding ([6]; twenty minutes, mortar and pestle): crystallinity had been significantly reduced

COc1cccc2[nH]c3c4c(c5c(c3c12)C(=O)N(CN1CCN(C)CC1)C5=O)CCC4 [Form HD0, 4,5,6,7-tetrahydro-11-methoxy-2-[(4-methyl-1-piperazinyl)methyl]-1H-cyclopenta[a]pyrrolo[3,4-c]carbazole-1,3(2H)-dione]
Chemical Stability (HPLC (post 4 weeks at 40° C./75% RH (Area %))) ([1]; 40° C./75% RH): 92.3 Area % | HPLC % Compound I ([1]; 40° C./75% RH, 0 days): 93.5% Compound I, | XRPD (form found) ([1]; 40° C./75% RH, 0 days): HD0 | HPLC % Compound I ([1]; 40° C./75% RH, 7 days): 92.2% Compound I, | XRPD (form found) ([1]; 40° C./75% RH, 7 days): HD0 | HPLC % Compound I ([1]; 40° C./75% RH, 13 days): 92.3% Compound I, | XRPD (form found) ([1]; 40° C./75% RH, 13 days): HD0 | HPLC % Compound I ([1]; 40° C./75% RH, 28 days): 92.3% Compound I, | XRPD (form found) ([1]; 40° C./75% RH, 28 days): HD0 | relative thermodynamic stability in solution ([7]; between room temperature and 55° C.): more thermodynamically stable than Form HC0 and form HA0 | solubility relative to the other hydrated polymorph (Form HC0) ([7]; ethyl acetate, MTBE, 1-pentanol, RT and 55° C.): always higher | Total uptake at 90% RH ([3]; Irregular DVS (90 to 0% RH)): 0.8% | changes by XRPD re-analysis after DVS ([3]; Irregular DVS (90 to 0% RH)): No significant changes | At 75% RH uptake [3, 10]: 0.4% | Total uptake at 90% RH [3, 10]: 0.8% | Total uptake at 90% RH ([3]; Regular DVS (0 to 90% RH)): 0.6% | changes by XRPD re-analysis after DVS ([3]; Regular DVS (0 to 90% RH)): No significant changes | At 75% RH uptake [3, 11]: 0.4% | Total uptake at 90% RH [3, 11]: 0.6%
